Like-named read-outs stand apart in the source and are kept apart here. *1 amine or outer side, *2 acyl side, *3 side chain or, on linkers, in order; H or OH if unused. Where a SMILES comes first, the peptide text is derived from it. Bridges are numbered along the chain shown (N, C = ends). [ ]: non-standard residue; d: D form. The star is where a group is joined. hTyr(3S-OH,4S-OH,3'-OSO3H) = N[C@H](C(=O)O)[C@H](O)[C@@H](O)c1ccc(O)c(OS(=O)(=O)O)c1; Orn(4R-OH,5R-OH) = O=C([C@H](C[C@@H](O)[C@@H](O)N[*:3])N[*:1])[*:2]; Pro(3S-OH,4S-Me) = C[C@H]1CN[C@H](C(=O)O)[C@H]1O; X1 = CCCCCOc1ccc(-c2cc(-c3ccc(C(=O)*)cc3)no2)cc1; Gln(3R-OH) = NC(=O)C[C@@H](O)[C@H](N)C(=O)O; Hyp = O=C(O)[C@@H]1C[C@@H](O)CN1
Legend:
cytochrome P450 [1] = test: Metabolism of luciferin derivatives in cultured silkworm midgut (P450-Glo, luminometer); assay type: in vitro ADME, Bombyx mori (silkworm); conditions: silkworm midgut incubated with luciferin substrate at 30 °C
[2] = Pharmacokinetics of antibiotics in silkworm hemolymph after injection (HPLC); conditions: for HPLC peak area in hemolymph: raw data of Fig. 1; for Time-course of the decrease in concentration in hemolymph (in words): after administration into hemolymph, alpha and beta phase; for Time-course of the decrease in concentration in hemolymph (in words) / Cltot (total body clearance): two-compartment model; for half-life: in vivo; for Cltot (total body clearance): silkworm, injection into hemolymph, dose per compound 10-50 mg/kg
Protocol: Antibiotics were injected into silkworm hemolymph and hemolymph was collected by cutting the legs at the indicated time.
Antibiotics dissolved in saline were injected into the hemolymph of 5th instar silkworms using a 1-mL syringe attached to a 27 G needle. Hemolymph was harvested from abdominal appendages by cutting them with scissors at the indicated time-points after administration, and mixed with an equal volume of acetone. Samples were centrifuged at 15,000 rpm for 5 min at 4 °C, and the supernatants were evaporated with a centrifuge evaporator[18]. The dried materials were dissolved in 50% methanol and filtrated through a 0.45-µm filter. […] The amount of antibiotics in the sample was quantified from the peak area of the chromatogram.

[3] = set-up: method as in PMID 15256761; conditions: rat, dose 1 mg/kg; cited from earlier work
cytochrome P450 [4] = test: Decay of cytochrome P450 substrates in in vitro culture of the silkworm midgut (HPLC); conditions: for HPLC peak area of substrate, Sample 1 / HPLC peak area of substrate, Sample 2: silkworm (Bombyx mori); for HPLC peak area of substrate: midgut culture, raw data of Fig. 3
Protocol: Silkworm midgut was incubated in medium with cytochrome P450 substrates at 30 °C. The samples were collected, extracted by acetone, and evaporated. The amounts of substrates were determined by HPLC analysis.
Silkworms (5th instar, 5 days) were dissected in a buffer (10 mM HEPES/NaOH, 0.9% NaCl, pH 7.9), and isolated organs were incubated with 3 mL TC-100 medium containing 10% fetal bovine serum, 50 µg/ml gentamicin, and substrates for the metabolic reaction. Whole samples (medium and organ) were homogenized and extracted by equal volumes of acetone followed by evaporation. Extracted samples were dissolved in 50 mM NaOAc buffer and treated with beta-glucosidase to measure the fluorescence of metabolized 7-ethoxycoumarin[6]. […] Samples for HPLC were dissolved in 50% methanol. HPLC analysis was performed using a PEGASIL ODS SP column (φ4.5 mm × 250 mm) with isocratic elution at a flow rate of 1 ml/min.

[5] = mammal, dose 8 mg/kg; cited from earlier work

## CC(C)OC(OC(C)C)C1CSC(c2nc3ccc(O)cc3s2)=N1 (stereo not drawn) [Luciferin-IPA]
Cytochrome P450 [1]
  Production of luciferin (RFU/organ): 198,000 RFU/organ

## CCCCCOc1ccc(-c2cc(-c3ccc(C(=O)N[C@H]4C[C@@H](O)[C@@H](O)NC(=O)[C@@H]5[C@@H](O)[C@@H](C)CN5C(=O)[C@H]([C@H](O)CC(N)=O)NC(=O)[C@H]([C@H](O)[C@@H](O)c5ccc(O)c(OS(=O)(=O)O)c5)NC(=O)[C@@H]5C[C@@H](O)CN5C(=O)[C@H]([C@@H](C)O)NC4=O)cc3)no2)cc1 [Micafungin] (X1-[Orn(4R-OH,5R-OH)]T[Hyp][hTyr(3S-OH,4S-OH,3'-OSO3H)][Gln(3R-OH)][Pro(3S-OH,4S-Me)]; lactam 1-C)
[2]; 1 min after injection
  HPLC peak area in hemolymph: 2078182
[2]; 5 min after injection
  HPLC peak area in hemolymph: 1273864
[2]; 20 min after injection
  HPLC peak area in hemolymph: 874882
[2]; 45 min after injection
  HPLC peak area in hemolymph: 1057083
[2]; 60 min after injection
  HPLC peak area in hemolymph: 1430059
[2]; 75 min after injection
  HPLC peak area in hemolymph: 1093500
[2]; 90 min after injection
  HPLC peak area in hemolymph: 1117482
[2]; 120 min after injection
  HPLC peak area in hemolymph: 1017294
[2]; 150 min after injection
  HPLC peak area in hemolymph: 1043908
[2]; 180 min after injection
  HPLC peak area in hemolymph: 936752
[2]; 240 min after injection
  HPLC peak area in hemolymph: 1002362
[2]; 360 min after injection
  HPLC peak area in hemolymph: 970304
[2]
  Time-course of the decrease in concentration in hemolymph (in words): biphasic
  half-life: 12 h
  Cltot (total body clearance): 0.03 mL/g/h
[3]
  Cltot: 0.07 mL/g/h
  Vdss: 0.4 mL/g
  t1/2: 5.0 h

## COc1ccc2[nH]c([S+]([O-])Cc3ncc(C)c(OC)c3C)nc2c1 (stereo not drawn) [Omeprazole]
Cytochrome P450 [4]
  Metabolism in the silkworm midgut (in words): metabolized in the silkworm midgut
Cytochrome P450 [4]; 0 h
  HPLC peak area of substrate, Sample 1: 141638
  HPLC peak area of substrate, Sample 2: 142171
Cytochrome P450 [4]; 1 h
  HPLC peak area of substrate, Sample 1: 117549
  HPLC peak area of substrate, Sample 2: 116381
Cytochrome P450 [4]; 4 h
  HPLC peak area of substrate, Sample 1: 57706
  HPLC peak area of substrate, Sample 2: 60668
Cytochrome P450 [4]; 20 h
  HPLC peak area of substrate, Sample 1: 8164
  HPLC peak area of substrate, Sample 2: 1815

## C[C@]12CC[C@H]3[C@@H](CCC4=CC(=O)CC[C@@]43C)[C@@H]1CC[C@@H]2O [Testosterone]
Cytochrome P450 [4]; in vitro organ culture, up to 20 h incubation
  Metabolism in the silkworm midgut (in words): metabolized in the silkworm midgut
Cytochrome P450 [4]; 0 h
  HPLC peak area of substrate: 3160000
Cytochrome P450 [4]; 1 h
  HPLC peak area of substrate: 1620000
Cytochrome P450 [4]; 4 h
  HPLC peak area of substrate: 1110000
Cytochrome P450 [4]; 20 h
  HPLC peak area of substrate: 1210000

## CN[C@H](CC(C)C)C(=O)N[C@H]1C(=O)N[C@@H](CC(N)=O)C(=O)N[C@H]2C(=O)N[C@H]3C(=O)N[C@H](C(=O)N[C@H](C(=O)O)c4cc(O)cc(O)c4-c4cc3ccc4O)[C@H](O)c3ccc(c(Cl)c3)Oc3cc2cc(c3O[C@@H]2O[C@H](CO)[C@@H](O)[C@H](O)[C@H]2O[C@H]2C[C@](C)(N)[C@H](O)[C@H](C)O2)Oc2ccc(cc2Cl)[C@H]1O [Vancomycin]
[5]
  Cltot: 0.08 mL/g/h
  Vdss: 0.6 mL/g
  t1/2: 2.6 h
[2]; 0 min after injection
  HPLC peak area in hemolymph: 6413329
[2]; 1 min after injection
  HPLC peak area in hemolymph: 7258474
[2]; 5 min after injection
  HPLC peak area in hemolymph: 5965159
[2]; 10 min after injection
  HPLC peak area in hemolymph: 4477743
[2]; 15 min after injection
  HPLC peak area in hemolymph: 4233708
[2]; 30 min after injection
  HPLC peak area in hemolymph: 5070602
[2]; 45 min after injection
  HPLC peak area in hemolymph: 4520231
[2]; 60 min after injection
  HPLC peak area in hemolymph: 4399183
[2]; 90 min after injection
  HPLC peak area in hemolymph: 3764336
[2]; 120 min after injection
  HPLC peak area in hemolymph: 4979100
[2]; 180 min after injection
  HPLC peak area in hemolymph: 4348972
[2]; 240 min after injection
  HPLC peak area in hemolymph: 4148058
[2]
  Time-course of the decrease in concentration in hemolymph (in words): biphasic
  half-life: 13 h
  Cltot (total body clearance): 0.03 mL/g/h
